Measured values published in patent US8293258B2, “Pesticide treatments made from hop extracts” (John I. Hass, Inc., priority 2000, dated 2012).

Columns and labels:
[1] = system: predator mites Galendromus occidentalis and Neoseiulus fallacis; details: in vivo
Description: Final concentrations of each component of the tank mix are: one-half percent liquid soap, one percent crop oil and one percent beta acids.
This mixture was applied to hop plants using a Windmill 400 gallon airblast sprayer. The mixture was applied to a one-acre test plot at the rate of 20 gallons per acre and to another one-acre plot at the rate of 100 gallons per acre. A total of five applications were made during the growing season. The first was made June 9th and the final on August 1st. Counts of live spider mites were made periodically during the season to monitor the effect of the product on the number of live mites. Simultaneously, the beneficial predator mites Galendromus occidentalis and Neoseiulus fallacis were counted to determine the effect of the product on these predator mites since these predator mites are useful in helping to reduce the numbers of twospotted spider mites.

[2] = system: Erysiphe (=Uncinula) necator; experiment: Grapevine powdery mildew control test (experimental vineyard); type: in vivo; details: standard control fungicide, concentration not given; percent of grape clusters that showed disease
Experimental: The grapevine powdery mildew organism is the fungus Erysiphe (=Uncinula) necator and the host plant is wine grape plant Vitis vinifera. Tests were conducted in an experimental vineyard near Pasco, Wash. Treatments were applied using an airblast sprayer at a volume of 100 gallons per acre. Disease inoculum was natural and had been the heaviest it has been in at least seven years. Plot size was five grape plants. Treatments were replicated four times and evaluations were made on September 4th. […] Percent severity is the portion of each grape cluster that was covered with symptoms.

Compound | predator numbers [1] | predator numbers, highest reached [1] | Percent Incidence [2]
Beta Acids | quite high | ≤ 12 per leaf | 
OC(c1ccc(Cl)cc1)(c1cncnc1)c1ccccc1Cl (stereo not drawn) [Standard Control, Fenarimol] |  |  | 71%
